# Test results from the supplement of paper PMC12317010.
# Counter-ions that a name gives are not always drawn.
# Assay: collision cross section in nitrogen (drift tube, single-field); higher = larger gas-phase ion size
# [1] = ion type: [M+Na], ion source: ESI, ion mode: Positive
# [2] = ion type: [M-H], ion source: ESI, ion mode: Negative
# [3] = ion type: [M+H], ion source: APCI, ion mode: Positive
# [4] = ion type: [M+H], ion source: ESI, ion mode: Positive
# 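Also: chemical standards at 10 µM analysed by drift tube IMS-QTOF MS in about 3.95 torr nitrogen, mean of duplicate injections differing ≤1%, mass error below 10 ppm.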
SMILES,collision cross section in nitrogen [1] [Å²],collision cross section in nitrogen [2] [Å²],collision cross section in nitrogen [3] [Å²],collision cross section in nitrogen [4] [Å²]
CCOC(=O)[C@@H](O)[C@H](O)C(=O)OCC [(-)-Diethyl-D-tartrate],153.6,,,
O=C1OC[C@H](Cc2cccc(O)c2)[C@H]1Cc1cccc(O)c1 [(-)-Enterolactone],178.2,165.3,,
CNC[C@H](O)c1cccc(O)c1 [(-)-Phenylephrine hydrochloride],,138.7,,
C=C(C)C(=O)OCCOC1CC2CC1C1C=CCC21 (centres undefined) [(Dicyclopentadienyloxy)ethyl methacrylate],170.7,,,
"O=C(N[C@H]1CN2CCC1CC2)c1cc2ccoc2cn1 [(R)-N-(Quinuclidin-3-yl)furo(2,3-C)pyridine-5-carboxamide]",181,172.1,168.1,168
O=c1[nH]c(=O)n([C@H]2CCCO2)cc1F [(R)-Tegafur],,142.2,,
CCCCCCCC/C=C\CCCCCCCCN [(Z)-9-Octadecenylamine],,,,180.2
CCCCCC/C=C\CCCCCCCC(=O)O [(Z)-Hexadec-9-enoic acid],,168.4,,
O=C(NC(=O)c1cc(F)c(F)cc1Cl)Nc1cc(F)ccc1N1CCC(C(=O)O)CC1 [AVE2865],195.9,196.2,202.7,202.4
CCOC(=O)O[C@H](C)OC(=O)c1ccc2c(c1)cc(C(=O)NC1CCN(C(C)C)CC1)n2Cc1cc(-c2ccc(Cl)s2)on1 [AVE6324],276.4,269.8,268,267.7
O=C(O)c1ccccc1-n1cc(C(=O)O)c(=O)c2cc(Nc3c(F)cc(F)cc3Cl)c(Cl)cc21 [AVE9423],223.5,216.1,210.6,210.8
COP(=O)(NC(C)=O)SC (centres undefined) [Acephate],141,133.9,,
CC1=CC(=O)NS(=O)(=O)O1 [Acesulfame potassium],,125.1,,
C/C(=N\C#N)N(C)Cc1ccc(Cl)nc1 [Acetamiprid],157.7,149.1,155.1,154.6
CCOCN(C(=O)CS(=O)(=O)O)c1c(C)cccc1CC [Acetochlor ESA],,172.3,,
CCCCOC(=O)CC(CC(=O)OCCCC)(OC(C)=O)C(=O)OCCCC [Acetyl tributyl citrate],207,,,

# Results, then the compound that gave them:
collision cross section in nitrogen [1] [Å²],collision cross section in nitrogen [2] [Å²],collision cross section in nitrogen [3] [Å²],collision cross section in nitrogen [4] [Å²],SMILES
189.7,178.6,,,"CCCCCC[C@@H](O)C/C=C\CCCCCCCC(=O)O [(9Z,12R)-12-Hydroxyoctadec-9-enoic acid]"
212.4,,,,O=C(O[C@@H]1Cc2c(O)cc(O)cc2O[C@@H]1c1cc(O)c(O)c(O)c1)c1cc(O)c(O)c(O)c1 [(-)-Epigallocatechin gallate]
,,136.5,137.2,CN1CCC[C@H]1c1cccnc1 [(-)-Nicotine]
,163.6,,,CCCC/C=C\CCCCCCCCCC=O [(Z)-11-Hexadecenal]
242.2,249.7,228.1,228.8,O=C(O)c1ccc2c(c1)nc(C(=O)NC1CCN(C3CC3)CC1)n2Cc1cc(-c2ccc(Cl)s2)on1 [AVE3247]
205.8,203,198,197.4,CC[C@H](NC(=O)c1cc(F)ccc1NS(=O)(=O)c1cccc2cccnc12)c1ccccc1 [AVE3295]
,,192.1,192.4,NCc1cccc(C2CCN(C(=O)c3ccc(C#Cc4ccccc4F)o3)CC2)c1 [AVE5638]
204.9,,197.2,,CCCOc1sc(C(=O)N2CCC(c3cc(CN)ccc3F)CC2)c(C)c1Br [AVE8923]
,132.5,,,CC(=O)Nc1ccc(O)cc1 [Acetaminophen]
,137.8,,,CC(=O)Nc1nnc(S(N)(=O)=O)s1 [Acetazolamide]
,138,,,CC(=O)CC(=O)Nc1ccccc1 [Acetoacetanilide]
